Experimental findings from patent publication US11866431B2, “Bicyclic compounds” (Vivace Therapeutics, Inc., priority 2018, dated 2024) are described below.

The first test concerns 8XTBD luciferase reporter (YAP reporter) in HEK293T cells. Description: YAP Reporter Assay. To be noted: Homo sapiens, HEK-293T, 24 h, read-out: Firefly Luciferase IC50 (μM). The test is classed as cell-based. As for the experimental part: HEK293T cells stably transfected with 8XTBD luciferase reporter and pRLTK in 384-well plates were treated with the test compounds, starting from 3 μM (final concentration in assay plate), 1:3 dilution, and 10 points in quadruplicates. Post 24-hr incubation with compounds at 37° C. and 5% CO2, cells were lysed and 8XTBD-driven firefly luciferase and control TK-driven renilla luciferase activities were measured using Promega Dual-Luciferase Reporter Assay System.
Reagents: The reagents used for this study are: DMEM: Invitrogen #11960077, Dual-Glo Luciferase Assay System: Promega-E2980, Puromycin Dihydrochloride: Invitrogen-A1113803, 384-well plate: PerkinElmer-6007480, L-GLUTAMINE: Invitrogen-25030164, Hygromycin B: Invitrogen-10687010, and Penicillin-Streptomycin: Merk-TMS-AB2-C
Media: The media used for this assay were: Culture Medium: DMEM+1 ug/mL puromycin+200 ug/mL hygromycin (with 10% FBS+1 mM L-glutamine); and Assay Medium: DMEM (with 10% FBS+1 mM L-glutamine+1×P/S).
Cell Plating: The appropriate media was warmed at 37° C. by water bath: Culture Medium, Assay Medium, 1*D-PBS, 0.05% trypsin-EDTA. The cells were trypsinized after removing all media, then washed with 1*sterile D-PBS and then with 2 ml 0.05% trypsin-EDTA. The cells were then incubated at RT for one minute. Then 10 ml/75 cm2 flask Assay Medium was added to each flask. Using a 10 ml pipette, the cells were then gently resuspended in the media, until the clumps completely disappeared. The cells were then transferred into 50 ml centrifuge tubes and were centrifuged at 800 rpm for 5 mins. The medium was removed and the cells were resuspended with Assay Medium. An aliquot of cells was used to count the cell density (cells/ml). The cell suspension was then diluted with Assay Medium to a concentration of 6×10^4 cells/ml. 50 ul cells suspension was then plated to 384-well plate (PerkinElmer-6007480), 3×10^3 cells/well and the cells were incubated in an incubator at 37° C. 5% CO2.
Compound Treatment: In the afternoon (incubation of the plate with 3-4 hrs), the test compounds were added by Echo, starting from 3 uM (final concentration in the assay plate), 1:3 dilution, 10 points, quadruplicates. The plate was placed at 37° C. 5% CO2 incubator for 24 hrs.
Detection: The Dual-Glo Luciferase Reagent was prepared by transferring the contents of one bottle of Dual-Glo Luciferase Buffer to one bottle of Dual-Glo Luciferase Substrate to create the Dual-Glo Luciferase Reagent. Mixing was performed by inversion until the substrate was thoroughly dissolved. After mixing, the reagent was aliquoted into 15 ml tubes. In the afternoon (24 hrs post compound treatment), the DMEM+ medium in the 384 well plates were aspirated by Microplate Washer.
Measuring firefly luciferase activity: 20 ul Dual-Glo Luciferase Reagent was added to the 384-well plates. The plates were protected from light to prevent interference with the assay. The plates were shaken for 1 min followed centrifuging plates at 1000 rpm for 30 seconds. After waiting at least 10 minutes, the firefly luminescence was measured by Envision.
Measuring renilla luciferase activity: 20 ul Stop-Glo Reagent was added to the 384-well plates. The plates were shaken for 1 min and then centrifuged at 1000 rpm for 30 seconds. After waiting at least 10 minutes, the renilla luminescence was measured by Envision.
Compound IC50 and maximum inhibition on the firefly luciferase and renilla luciferase activities were reported separately.
(A reporter such as luciferase makes a cellular process visible.)
Consider `CC(C)NC(=O)c1ccc2c(-c3ccc(C(F)(F)F)cc3)cc3sc(N)nc3c2c1` [Compound 63, 2-amino-N-isopropyl-5-(4-(trifluoromethyl)phenyl)naphtho[1,2-d]thiazole-8-carboxamide], for which the 50% inhibitory concentration (IC50) is below 0.1 µM.

The same test, now with this note: Homo sapiens, HEK-293T; HEK293T cells stably transfected with 8XTBD luciferase reporter and pRLTK; 24-hr incubation; top concentration 3 μM; read-out: Firefly Luciferase IC50.
In the case of `C[C@@H](CN1CCCC1)NC(=O)c1ccc2c(-c3ccc(C(F)(F)F)cc3)cccc2c1` [Compound 66, (S)—N-(1-(pyrrolidin-1-yl)propan-2-yl)-5-(4-(trifluoromethyl)phenyl)-2-naphthamide], the IC50 lay within 0.1 to 1 µM.
The same measure, in the same setting: in the case of `NCCOCCOCCNC(=O)c1ccc2c(-c3ccc(C(F)(F)F)cc3)cccc2c1` [Compound 50, N-(2-(2-(2-aminoethoxy)ethoxy)ethyl)-5-(4-(trifluoromethyl)phenyl)-2-naphthamide] it was 0.1 to 1 µM.
Still for that read-out and setting: in the case of `O=C(N[C@@H](CCO)c1ccccn1)c1ccc2c(-c3ccc(C(F)(F)F)cc3)cccc2c1` [Compound 164, (S)—N-(3-hydroxy-1-(pyridin-2-yl)propyl)-5-(4-(trifluoromethyl)phenyl)-2-naphthamide] it was below 0.1 µM.
Take `C[C@H](NC(=O)c1ccc2c(-c3ccc(C(F)(F)F)cc3)cccc2c1)c1ccccn1` [Compound 90, (S)—N-(1-(pyridin-2-yl)ethyl)-5-(4-(trifluoromethyl)phenyl)-2-naphthamide]: the 50% inhibitory concentration (IC50) was below 0.1 µM.
On the same count and under the same terms, for `O=C(O)c1ccc2c(-c3ccc(C(F)(F)F)cc3)cccc2n1` [Compound 333, 5-(4-(trifluoromethyl)phenyl)quinoline-2-carboxylic Acid] the value was 0.1 to 1 µM; for `C[C@H](CO)NC(=O)c1ccc2c(-c3ccc(C(F)(F)F)cc3)cccc2c1` [Compound 85, (R)—N-(1-hydroxypropan-2-yl)-5-(4-(trifluoromethyl)phenyl)-2-naphthamide], below 0.1 µM.
Still for that read-out and setting: for `C[C@@H](NC(=O)c1ccc2c(-c3ccc(C(F)(F)F)cc3)cccc2c1)c1nnnn1C` [Compound 281, (R)—N-(1-(1-methyl-1H-tetrazol-5-yl)ethyl)-5-(4-(trifluoromethyl)phenyl)-2-naphthamide] the value was 0.1 to 1 µM; for `O=C(O)c1cnc2c(-c3ccc(C(F)(F)F)cc3)cc(OC3CC3)cc2c1` [Compound 323, 6-cyclopropoxy-8-(4-(trifluoromethyl)phenyl)quinoline-3-carboxylic acid], below 0.1 µM; for `CNCCCNC(=O)c1ccc2c(-c3ccc(C(F)(F)F)cc3)cccc2c1` [Compound 126, N-(3-(methylamino)propyl)-5-(4-(trifluoromethyl)phenyl)-2-naphthamide], 0.1 to 1 µM.
`C[C@@H](NC(=O)c1ccc2c(-c3ccc(C(F)(F)F)cc3)cccc2c1)C1CCC1` [Compound 252, (R)—N-(1-cyclobutylethyl)-5-(4-(trifluoromethyl)phenyl)-2-naphthamide]: the IC50 was 0.1 to 1 µM.
`COC[C@@H](C)NC(=O)c1ccc2c(-c3ccc(C(F)(F)F)cc3)cc(OC)cc2c1` [Compound 295, (R)-7-Methoxy-N-(1-methoxypropan-2-yl)-5-(4-(trifluoromethyl)phenyl)-2-naphthamide]: the IC50 is below 0.1 µM.
The same measure, in the same setting: for `CC(C)NC(=O)c1ccc2c(-c3ccc(C(F)(F)F)cc3)ccc(Cl)c2c1` [Compound 13, 8-chloro-N-isopropyl-5-(4-(trifluoromethyl)phenyl)-2-naphthamide] the value was below 0.1 µM; for `C#CCNC(=O)c1ccc2c(-c3ccc(C(F)(F)F)cc3)cccc2c1` [Compound 111, N-(prop-2-yn-1-yl)-5-(4-(trifluoromethyl)phenyl)-2-naphthamide], below 0.1 µM; for `O=C(NC(CCO)CCO)c1ccc2c(-c3ccc(C(F)(F)F)cc3)cccc2c1` [Compound 161, N-(1,5-dihydroxypentan-3-yl)-5-(4-(trifluoromethyl)phenyl)-2-naphthamide], 0.1 to 1 µM.
The same measure, in the same setting: in the case of `C[C@H](NC(=O)c1ccc2c(-c3ccc(C(F)(F)F)cc3)cccc2c1)c1c[nH]cn1` [Compound 276, (S)—N-(1-(1H-imidazol-4-yl)ethyl)-5-(4-(trifluoromethyl)phenyl)-2-naphthamide] it was 0.1 to 1 µM; in that of `Cc1cc(-c2ccc(C(F)(F)F)cc2)c2ccc(C(=O)NC(C)C)cc2c1` [Compound 41, N-isopropyl-7-methyl-5-(4-(trifluoromethyl)phenyl)-2-naphthamide], below 0.1 µM.
As to `COCCOc1cccc(CNC(=O)c2ccc3c(-c4ccc(C(F)(F)F)cc4)cccc3c2)c1` [Compound 208, N-(3-(2-methoxyethoxy)benzyl)-5-(4-(trifluoromethyl)phenyl)-2-naphthamide], the half-maximal inhibitory concentration (IC50) is below 0.1 µM.
The same measure, in the same setting: for `COCCOCCNC(=O)c1ccc2c(-c3ccc(C(F)(F)F)cc3)cccc2c1` [Compound 57, N-(2-(2-methoxyethoxy)ethyl)-5-(4-(trifluoromethyl)phenyl)-2-naphthamide] the value was 0.1 to 1 µM; for `CS(=O)(=O)NC(=O)c1cnc2c(-c3ccc(C(F)(F)F)cc3)cc(F)c(F)c2c1` [Compound 73, 5,6-Difluoro-N-(methylsulfonyl)-8-(4-(trifluoromethyl)phenyl)quinoline-3-carboxamide], 0.1 to 1 µM.
The same measure, in the same setting: in the case of `COC[C@H](C)NC(=O)c1ccc2c(-c3ccc(C(F)(F)F)cc3)cc(OC)cc2c1` [Compound 294, (S)-7-Methoxy-N-(1-methoxypropan-2-yl)-5-(4-(trifluoromethyl)phenyl)-2-naphthamide] it was below 0.1 µM; in that of `C[C@@H](NC(=O)c1ccc2c(-c3ccc(C(F)(F)F)cc3)cccc2c1)c1ccccc1Cl` [Compound 206, (R)—N-(1-(2-chlorophenyl)ethyl)-5-(4-(trifluoromethyl)phenyl)-2-naphthamide], below 0.1 µM.
Still for that read-out and setting: for `CC(C)(NC(=O)c1ccc2c(-c3ccc(C(F)(F)F)cc3)cccc2c1)c1ccccn1` [Compound 262, N-(2-(pyridin-2-yl)propan-2-yl)-5-(4-(trifluoromethyl)phenyl)-2-naphthamide] the value was 0.1 to 1 µM; for `COCC(=O)NCCOCCOCCNC(=O)c1ccc2c(-c3ccc(C(F)(F)F)cc3)cccc2c1` [Compound 76, N-(4-oxo-2,8,11-trioxa-5-azatridecan-13-yl)-5-(4-(trifluoromethyl)phenyl)-2-naphthamide], 0.1 to 1 µM; for `COc1cc(-c2ccc(C(F)(F)F)cc2)c2ncc(C(=O)NC(CO)c3ccccn3)cc2c1` (stereo not shown) [Compound 105, N-[2-hydroxy-1-(2-pyridyl)ethyl]-6-methoxy-8-[4-(trifluoromethyl)phenyl]quinoline-3-carboxamide], below 0.1 µM.
As for `N#CCNC(=O)c1ccc2c(-c3ccc(C(F)(F)F)cc3)cccc2c1` [Compound 113, N-(cyanomethyl)-5-(4-(trifluoromethyl)phenyl)-2-naphthamide], the IC50 was below 0.1 µM.
Same read-out and setting: in the case of `C[C@@H](NC(=O)c1ccc2c(-c3ccc(C(F)(F)F)cc3)cccc2c1)c1cnccn1` [Compound 283, (R)—N-(1-(pyrazin-2-yl)ethyl)-5-(4-(trifluoromethyl)phenyl)-2-naphthamide] it was below 0.1 µM; in that of `C[C@@H](NC(=O)c1ccc2c(-c3ccc(C(F)(F)F)cc3)cccc2c1)c1cc(N)ccn1` [Compound 213, (R)—N-(1-(4-aminopyridin-2-yl)ethyl)-5-(4-(trifluoromethyl)phenyl)-2-naphthamide], 0.1 to 1 µM.

As usually defined, the IC50 is the concentration needed to halve the response being measured.
